Experimental findings from ChEMBL document CHEMBL1145177, “Further naphthylcombretastatins. An investigation on the role of the naphthalene moiety” (J Med Chem, 2005) are described below.

What all share (format): functional, cell-based
For one assay, the system named is HT-29. Nature of the assay: Inhibitory concentration value against human colon adenocarcinoma HT-29 tumor cell line.
The subject of another assay is P388. Nature of the assay: Inhibitory concentration value against murine P-388 tumor cell line. As to conditions: Mus musculus.
In the next assay the test system is A549. Nature of the assay: Inhibitory concentration value against human A-549 tumor cell line.
The next assay concerns HCT-116. Nature of the assay: Inhibitory concentration value against human colon carcinoma H-116 tumor cell line.
The test system of another assay is SK-MEL-28. Nature of the assay: Inhibitory concentration value against human MEL-28 tumor cell line.

The IC50 is the concentration that gives 50% inhibition. Low readings indicate greater potency in that assay, high ones weaker potency in that assay.

Take `COc1ccc(/C=C/c2ccc3ccccc3c2)cc1N`: the IC50 is greater than 5 µM in the assay on HT-29; greater than 5 µM in the assay on P388; 1.82 µM in the assay with A549; 1.82 µM in the assay on HCT-116; greater than 5 µM with SK-MEL-28.

Take `C(=C/c1ccc2ccccc2c1)/c1ccc2c(c1)-c1ccccc1C2`: the IC50 in the assay with HT-29, with P388, with A549, with HCT-116 and with SK-MEL-28 was greater than 5 µM in each case.

For `Cc1ccc(/C=C\c2ccc3ccccc3c2)cc1`, the IC50 in the assay with HT-29, with P388, in the assay on A549, in the assay on HCT-116 and with SK-MEL-28 was greater than 5 µM in each case.

Take `COc1ccc(/C=C\c2ccc3ccccc3c2)cc1C(=O)CN`: the IC50 with HT-29 is greater than 5 µM; in the assay on P388 it was greater than 5 µM; with A549, 1.58 µM; with HCT-116, greater than 5 µM; in the assay with SK-MEL-28, greater than 5 µM.

On to `C(=C/c1ccc2[nH]ccc2c1)/c1ccc2ccccc2c1`, for which the IC50 in the assay on HT-29, with P388, in the assay on A549, in the assay on HCT-116 and in the assay with SK-MEL-28 was greater than 5 µM each time.

For the compound `C(=C/c1cccc2ccccc12)/c1ccc2ccccc2c1`, the IC50 in the assay on HT-29, in the assay on P388, in the assay on A549, in the assay with HCT-116 and in the assay with SK-MEL-28 was 3.57 µM throughout.

As to `C(=C/c1ccc2ccccc2c1)/c1ccoc1`, the IC50 in the assay on HT-29, in the assay on P388, in the assay on A549, in the assay on HCT-116 and with SK-MEL-28 was greater than 5 µM throughout.

In the case of `COc1ccc(/C=C\c2ccc3ccccc3c2)cc1[N+](=O)[O-]`, the IC50 in the assay with HT-29 was 3.28 µM; in the assay on P388 it was greater than 20 µM; in the assay on A549, greater than 20 µM; in the assay with HCT-116, greater than 20 µM; with SK-MEL-28 it was greater than 20 µM.

For `O=S(=O)(c1ccccc1)n1ccc2cc(/C=C\c3ccc4ccccc4c3)ccc21`, the IC50 with HT-29, in the assay on P388, with A549, with HCT-116 and in the assay on SK-MEL-28 was greater than 5 µM in each case.

Regarding `COc1ccc(/C=C/c2ccc3ccccc3c2)cc1[N+](=O)[O-]`, the IC50 in the assay with HT-29, in the assay with P388, in the assay on A549, with HCT-116 and in the assay on SK-MEL-28 was greater than 5 µM each time.

For `COCCOc1cc(/C=C/c2ccc3ccccc3c2)ccc1OC`, the IC50 in the assay on HT-29 is greater than 5 µM; in the assay on P388, 2.99 µM; with A549 it was 2.99 µM; with HCT-116, greater than 5 µM; in the assay with SK-MEL-28, 2.99 µM.

Take `Oc1ccc(/C=C/c2ccc3ccccc3c2)cc1`: the IC50 with HT-29, in the assay on P388, with A549, in the assay on HCT-116 and in the assay with SK-MEL-28 was 4.06 µM throughout.

As for `COc1ccc(/C=C/c2ccc3ccccc3c2)cc1F`, the IC50 was greater than 5 µM in the assay with HT-29; 4.49 µM with P388; greater than 5 µM in the assay on A549; greater than 5 µM with HCT-116; greater than 5 µM in the assay on SK-MEL-28.

Turning to `Cc1ccc(/C=C/c2ccc3ccccc3c2)cc1`, the IC50 in the assay with HT-29, in the assay with P388, in the assay on A549, in the assay with HCT-116 and with SK-MEL-28 was greater than 5 µM throughout.

With `C(=C\c1ccc2ccccc2c1)/c1ccoc1`, the IC50 in the assay with HT-29, in the assay with P388, in the assay with A549, in the assay with HCT-116 and in the assay on SK-MEL-28 was greater than 5 µM each time.

On to `C(=C\c1ccc2ccccc2c1)/c1ccc2c(c1)-c1ccccc1C2`, for which the IC50 with HT-29, with P388, in the assay on A549, in the assay on HCT-116 and in the assay on SK-MEL-28 was greater than 5 µM in each case.

As to `Cn1c2ccccc2c2cc(/C=C/c3ccc4ccccc4c3)ccc21`, the IC50 in the assay on HT-29, with P388, with A549, in the assay on HCT-116 and with SK-MEL-28 was greater than 5 µM each time.

For the compound `CN(C)c1ccc(/C=C\c2ccc3ccccc3c2)cc1`, the IC50 in the assay on HT-29, with P388, in the assay on A549, in the assay on HCT-116 and in the assay with SK-MEL-28 was 3.66 µM throughout.

For `CC(=O)Oc1ccc(/C=C/c2ccc3ccccc3c2)cc1`, the IC50 in the assay with HT-29, in the assay on P388, with A549, in the assay with HCT-116 and with SK-MEL-28 was greater than 5 µM in each case.

`O=S(=O)(c1ccccc1)n1ccc2cc(/C=C/c3ccc4ccccc4c3)ccc21`: the IC50 in the assay on HT-29, in the assay on P388, in the assay on A549, with HCT-116 and with SK-MEL-28 was greater than 5 µM each time.

As to `FC(F)(F)c1ccc(/C=C\c2ccc3ccccc3c2)cc1`, the IC50 in the assay with HT-29, in the assay on P388, in the assay with A549, in the assay with HCT-116 and in the assay on SK-MEL-28 was greater than 5 µM in each case.

`COc1ccc(/C=C\c2ccc3ccccc3c2)cc1N`: the IC50 was 1.82 µM in the assay with HT-29; 1.82 µM with P388; greater than 20 µM in the assay with A549; 0.36 µM with HCT-116; greater than 20 µM in the assay with SK-MEL-28.

Consider `CN(C)c1ccc(/C=C/c2ccc3ccccc3c2)cc1`, for which the IC50 in the assay on HT-29, in the assay with P388, in the assay with A549, with HCT-116 and in the assay with SK-MEL-28 was 3.66 µM each time.

As for `CCN(CC)c1cc(/C=C/c2ccc3ccccc3c2)ccc1OC`, the IC50 with HT-29, with P388, with A549, in the assay on HCT-116 and with SK-MEL-28 was greater than 5 µM throughout.

Consider `Cn1ccc2cc(/C=C/c3ccc4ccccc4c3)ccc21`, for which the IC50 was greater than 5 µM in the assay with HT-29; greater than 5 µM in the assay on P388; 3.53 µM in the assay on A549; greater than 5 µM with HCT-116; greater than 5 µM in the assay with SK-MEL-28.

As to `FC(F)(F)c1ccc(/C=C/c2ccc3ccccc3c2)cc1`, the IC50 with HT-29, in the assay on P388, in the assay on A549, with HCT-116 and with SK-MEL-28 was greater than 5 µM each time.

As to `COc1ccc(/C=C/c2ccc3ccccc3c2)cc1C(=O)CN`, the IC50 in the assay on HT-29, in the assay on P388, in the assay with A549, in the assay with HCT-116 and in the assay on SK-MEL-28 was greater than 5 µM in each case.

`COCCOc1cc(/C=C\c2ccc3ccccc3c2)ccc1OC`: the IC50 with HT-29, in the assay with P388, in the assay with A549, in the assay with HCT-116 and in the assay on SK-MEL-28 was 2.99 µM in each case.

As for `COc1ccc(/C=C/c2ccc3ccccc3c2)cc1`, the IC50 in the assay on HT-29, in the assay on P388, in the assay on A549, with HCT-116 and with SK-MEL-28 was greater than 5 µM each time.

Consider `C(=C/c1ccco1)/c1ccc2ccccc2c1`, for which the IC50 in the assay with HT-29, with P388, in the assay with A549, in the assay on HCT-116 and with SK-MEL-28 was greater than 5 µM throughout.
